Values quoted from earlier work in patent US20130296440A1 (CHROMADEX INC., priority 2012, published 2013).
Like-named read-outs stand apart in the source and are kept apart here.

Assays:
5-LOX = biological target: T1, 5-LOX (Homo sapiens, UniProt P09917); conditions: cultured cells
T1 construct: endogenous in cells
T1 sequence (P09917 1-674): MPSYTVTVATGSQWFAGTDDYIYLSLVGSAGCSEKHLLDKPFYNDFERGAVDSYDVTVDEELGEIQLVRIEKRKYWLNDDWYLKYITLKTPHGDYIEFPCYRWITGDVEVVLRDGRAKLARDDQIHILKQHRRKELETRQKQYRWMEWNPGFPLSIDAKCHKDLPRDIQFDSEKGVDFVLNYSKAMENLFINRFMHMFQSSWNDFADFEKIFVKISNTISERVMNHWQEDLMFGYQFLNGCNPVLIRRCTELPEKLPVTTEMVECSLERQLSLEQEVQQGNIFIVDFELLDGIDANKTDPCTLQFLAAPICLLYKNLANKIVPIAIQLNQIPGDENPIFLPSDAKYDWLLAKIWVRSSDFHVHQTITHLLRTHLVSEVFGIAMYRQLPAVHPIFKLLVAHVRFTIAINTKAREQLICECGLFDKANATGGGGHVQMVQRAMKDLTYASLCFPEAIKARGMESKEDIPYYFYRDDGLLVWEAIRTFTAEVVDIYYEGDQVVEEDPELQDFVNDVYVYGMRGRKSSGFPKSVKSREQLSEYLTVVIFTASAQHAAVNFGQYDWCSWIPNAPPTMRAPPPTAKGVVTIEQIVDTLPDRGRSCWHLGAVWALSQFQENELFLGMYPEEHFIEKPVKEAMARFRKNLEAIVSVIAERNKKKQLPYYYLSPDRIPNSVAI

PLA2 = conditions: cultured cells
[1] = for bioavailability: in vivo; for half life t1/2: in blood
COX-2 = conditions: cultured cells
[2] = mice; 28-day; 160 pound human equivalent doses of approximately 125 mg/day, 1.25 g/day and 12.5 g/day
CYP2E1 = CYP2E1 (Homo sapiens, UniProt P05181)
PPAR-alpha = biological target: T2, PPAR-alpha (Rattus norvegicus, UniProt P37230); conditions: for PPAR-alpha activation: luciferase reporter
T2 construct: Using a luciferase reporter gene construct containing the peroxisome proliferator response element promoter region; endogenous in cells; host or cells: H4IIEC3 rat liver cells
T2 sequence (P37230 1-468): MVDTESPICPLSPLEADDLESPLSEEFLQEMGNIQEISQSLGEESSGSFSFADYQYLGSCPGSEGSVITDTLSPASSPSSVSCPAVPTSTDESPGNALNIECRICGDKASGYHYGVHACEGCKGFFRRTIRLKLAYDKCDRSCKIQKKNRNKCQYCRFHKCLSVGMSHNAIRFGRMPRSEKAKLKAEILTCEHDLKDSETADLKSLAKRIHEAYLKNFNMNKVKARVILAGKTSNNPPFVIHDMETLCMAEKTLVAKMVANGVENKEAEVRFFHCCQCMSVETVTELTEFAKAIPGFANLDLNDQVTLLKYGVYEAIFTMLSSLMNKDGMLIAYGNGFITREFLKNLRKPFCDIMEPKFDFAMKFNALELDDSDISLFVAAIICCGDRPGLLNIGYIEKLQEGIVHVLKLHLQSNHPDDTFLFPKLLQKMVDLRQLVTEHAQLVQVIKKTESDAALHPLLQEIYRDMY

rat smooth muscle cells = conditions: in vitro
CYP1A1 = biological target: T3, CYP1A1 (Homo sapiens, UniProt P04798); conditions: human recombinant
T3 sequence (P04798 1-512): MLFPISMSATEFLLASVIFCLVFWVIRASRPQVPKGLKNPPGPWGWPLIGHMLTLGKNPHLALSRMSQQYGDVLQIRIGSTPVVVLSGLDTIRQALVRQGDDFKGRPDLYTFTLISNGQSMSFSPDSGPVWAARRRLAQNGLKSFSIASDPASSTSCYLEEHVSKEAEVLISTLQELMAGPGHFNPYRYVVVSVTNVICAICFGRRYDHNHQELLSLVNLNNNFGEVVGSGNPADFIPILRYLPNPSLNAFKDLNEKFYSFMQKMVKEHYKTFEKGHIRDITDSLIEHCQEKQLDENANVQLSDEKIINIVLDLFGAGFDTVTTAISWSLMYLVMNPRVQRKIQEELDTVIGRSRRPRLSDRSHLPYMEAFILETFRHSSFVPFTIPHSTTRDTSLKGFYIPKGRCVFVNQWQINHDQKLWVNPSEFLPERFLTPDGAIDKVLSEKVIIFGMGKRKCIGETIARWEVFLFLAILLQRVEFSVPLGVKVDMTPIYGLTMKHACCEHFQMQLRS

CYP1B1 = biological target: T4, CYP1B1 (Homo sapiens, UniProt Q16678); conditions: human recombinant
T4 sequence (Q16678 1-543): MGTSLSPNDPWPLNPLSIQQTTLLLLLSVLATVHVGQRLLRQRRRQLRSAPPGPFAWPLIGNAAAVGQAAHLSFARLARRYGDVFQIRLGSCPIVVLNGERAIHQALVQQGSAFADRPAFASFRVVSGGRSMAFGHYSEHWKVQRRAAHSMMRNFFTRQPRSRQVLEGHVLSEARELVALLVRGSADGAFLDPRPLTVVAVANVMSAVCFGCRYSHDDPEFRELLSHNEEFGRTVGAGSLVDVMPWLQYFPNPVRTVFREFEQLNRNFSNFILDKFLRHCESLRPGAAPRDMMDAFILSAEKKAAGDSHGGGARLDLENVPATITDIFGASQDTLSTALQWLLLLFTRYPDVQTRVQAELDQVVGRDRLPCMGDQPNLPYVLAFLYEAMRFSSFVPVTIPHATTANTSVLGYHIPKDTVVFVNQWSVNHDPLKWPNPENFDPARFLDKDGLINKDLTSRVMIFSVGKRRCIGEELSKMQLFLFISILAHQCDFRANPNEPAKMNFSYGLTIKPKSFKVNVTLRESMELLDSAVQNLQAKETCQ

H4IIEC3 rat liver cells = conditions: 100 μM
[3] = 100 μM, H4IIEC3 rat liver cells

CYP2E1, sequence (P05181 whole entry, species assumed): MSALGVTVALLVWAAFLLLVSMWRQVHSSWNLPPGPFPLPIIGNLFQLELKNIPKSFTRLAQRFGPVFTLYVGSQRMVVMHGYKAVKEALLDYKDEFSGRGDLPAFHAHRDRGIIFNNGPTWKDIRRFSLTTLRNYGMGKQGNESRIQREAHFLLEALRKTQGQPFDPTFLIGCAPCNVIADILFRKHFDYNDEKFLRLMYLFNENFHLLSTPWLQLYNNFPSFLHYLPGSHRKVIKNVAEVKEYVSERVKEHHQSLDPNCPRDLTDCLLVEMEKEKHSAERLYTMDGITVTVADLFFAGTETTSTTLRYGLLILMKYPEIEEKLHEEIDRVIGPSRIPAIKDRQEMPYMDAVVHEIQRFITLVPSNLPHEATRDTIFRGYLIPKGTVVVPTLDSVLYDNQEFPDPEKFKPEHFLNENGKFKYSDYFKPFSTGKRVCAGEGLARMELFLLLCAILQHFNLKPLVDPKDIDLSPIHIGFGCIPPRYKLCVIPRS

For COc1cc(/C=C/C(=O)CC(=O)/C=C/c2ccc(O)c(OC)c2)ccc1O [curcumin, (1E,6E)-1,7-Bis(4-hydroxy-3-methoxyphenyl)-1,6-heptadiene-3,5-dione], the 5-LOX activity (5-LOX) is listed as “inhibit”, the PLA2 activity (PLA2) is listed as “inhibit” and the bioavailability [1] is listed as “poor bioavailability”. For the same compound, the water solubility was “minimally water soluble” and the COX-2 activity (COX-2) was “inhibit”.

In the case of COc1cc(/C=C/c2ccc(O)cc2)cc(OC)c1 [pterostilbene, trans-3,5-dimethoxy-4′-hydroxystilbene], the “local or systemic toxicity” value [2] is listed as “no local or systemic toxicity”, the “inhibition of CYP2E1” value (CYP2E1) is listed as “not” and the “PPAR-alpha activation relative to 100 μM of ciprofibrate” value (PPAR-alpha; [3]) is listed as about 2 fold. The PPAR-alpha activation (PPAR-alpha; [3]) was 8 fold over the control, the PPAR-alpha activation (PPAR-alpha; 300 μM, H4IIEC3 rat liver cells) was 14 fold over the control and the “PPAR-alpha activation within a group of similar stilbenes” value (PPAR-alpha; in a manner similar to ciprofibrate (Rimando 2005)) was “activated PPAR-alpha”. For the same compound, the “proliferation of rat smooth muscle cells” value (rat smooth muscle cells) was “inhibit”, the “inhibition of CYP1A1 isozyme” value (CYP1A1) was “inhibit” and the “half life t1/2” value [1] was 74 to 105 min. For the same compound, the bioavailability [1] was “orally bioavailable” and the “inhibition of CYP1B1 isozyme” value (CYP1B1) was “inhibit”.

For Oc1ccc(C=Cc2cc(O)cc(O)c2)cc1 [resveratrol, reference compound], the toxicity to cells (H4IIEC3 rat liver cells) is listed as “toxic to cells”, the “half life t1/2” value [1] is listed as 10 to 14 min and the bioavailability [1] is listed as “poor bioavailability”.
